These results are taken from patent publication US20170275270A1, “BENZYL SUBSTITUTED INDAZOLES” (Bayer Pharma Aktiengesellschaft, priority 2014, published 2017).

Where a name gives a salt, the structure may show the parent alone. Read-outs that look alike come from different tables or passages of the source.

One test relates to HeLa. The experiment in a line: Proliferation assay (HeLa cell line).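 Further: crystal violet staining of cell number, scaled between a plate stained before dosing (0%) and cells left untreated (100%), compounds tested at 0.001-10 µM, IC50 via 4-parameter fit.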 The following applies: Homo sapiens, 96 h, read-out: Biological Assay 2: Proliferation assay (HeLa cell line) median IC50.
The target of a further test is Bub1 (Homo sapiens, UniProt O43683). The experiment in a line: Formation-Assay: phosphorylation status of histone 2A by inhibition of kinase activity of Bub1. It is filed as cell-based. The following applies: Biological Assay 4.1: H2A Formation IC50, co-treatment with Nocodazole 1 μg/ml, 16 h. A digest of the protocol: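 Cells co-treated 16 h with Nocodazole (1 μg/ml) and compound (3 nM–10 μM), then fixed and immunostained for phospho-H2A, read by infrared imaging (800 nm) normalised to cell stain (700 nm). Nocodazole-only set as 100%, untreated cells as 0%.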
Sequence of Bub1 (O43683 whole entry): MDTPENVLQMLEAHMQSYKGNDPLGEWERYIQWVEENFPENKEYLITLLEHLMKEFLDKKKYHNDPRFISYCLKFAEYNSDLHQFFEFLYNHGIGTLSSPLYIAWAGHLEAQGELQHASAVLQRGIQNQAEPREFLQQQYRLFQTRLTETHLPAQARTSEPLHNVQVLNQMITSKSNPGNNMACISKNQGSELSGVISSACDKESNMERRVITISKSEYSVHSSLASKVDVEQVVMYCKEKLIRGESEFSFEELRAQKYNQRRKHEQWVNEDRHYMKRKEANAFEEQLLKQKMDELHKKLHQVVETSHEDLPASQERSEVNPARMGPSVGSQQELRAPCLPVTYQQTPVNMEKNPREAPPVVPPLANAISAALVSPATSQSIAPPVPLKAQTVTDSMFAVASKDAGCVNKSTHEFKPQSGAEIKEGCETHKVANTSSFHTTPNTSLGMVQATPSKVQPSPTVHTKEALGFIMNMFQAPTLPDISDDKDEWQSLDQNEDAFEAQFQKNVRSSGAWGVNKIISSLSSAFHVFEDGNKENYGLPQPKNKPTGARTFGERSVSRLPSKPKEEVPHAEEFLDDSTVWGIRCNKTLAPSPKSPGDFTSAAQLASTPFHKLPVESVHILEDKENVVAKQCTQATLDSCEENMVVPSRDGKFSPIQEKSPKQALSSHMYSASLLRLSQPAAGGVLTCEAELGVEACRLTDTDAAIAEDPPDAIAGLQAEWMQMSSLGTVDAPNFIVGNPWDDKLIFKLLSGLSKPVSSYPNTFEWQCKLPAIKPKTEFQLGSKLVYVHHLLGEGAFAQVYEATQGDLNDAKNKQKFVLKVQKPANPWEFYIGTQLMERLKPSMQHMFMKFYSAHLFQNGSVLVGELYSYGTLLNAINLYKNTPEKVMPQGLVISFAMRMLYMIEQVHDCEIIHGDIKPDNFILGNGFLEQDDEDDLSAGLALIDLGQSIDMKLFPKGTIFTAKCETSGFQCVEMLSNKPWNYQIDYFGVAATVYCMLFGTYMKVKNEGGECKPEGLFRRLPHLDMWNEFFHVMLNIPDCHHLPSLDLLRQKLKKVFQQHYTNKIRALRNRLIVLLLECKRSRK

Test [1] has as its target T1, catalytic domain of human Bub1 (amino acids 704-1085) (Homo sapiens, UniProt O43683).
T1 construct: catalytic domain of human Bub1 (amino acids 704-1085); His6 (N); made in house; host or cells: Hi5 insect cells
The experiment in a line: Bub1 kinase assay (TR-FRET). It is filed as biochemical. The method, boiled down: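 TR-FRET read-out (Eu-anti-mouse IgG/anti-phosphoserine antibody to streptavidin-XL665 on biotinylated peptide) after EDTA stop and 1 h complex formation at 22° C. Kinase reaction ran 60 min at 22° C with 1:3.4 serial dilutions from 2 mM DMSO stocks. IC50 from 4-parameter logistic fit of normalized inhibition.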
(TR-FRET usually uses a lanthanide donor and a delayed reading to cut background.)

Test [2] has as its system HeLa human cervical tumor cells. The experiment in a line: Proliferation assay (HeLa+Paclitaxel).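 Further: compounds at 0.001-10 µM added 4 h after paclitaxel, 92 h exposure, absorbance normalized to zero-point plate (0%) and untreated cells (100%), IC50 from 4-parameter fit.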 The following applies: read-out: Biological Assay 3: HeLa + Paclitaxel IC50, 3 nM paclitaxel, crystal violet.
Method: Proliferation Assay (HeLa+Paclitaxel):
Cultivated HeLa human cervical tumor cells (DSMZ ACC-57) were plated at a density of 3000 cells/well in a 96-well multititer plate in 200 μL of growth medium supplemented 10% fetal calf serum. After 24 hours, the cells of one plate (zero-point plate) were stained with crystal violet (see below). The medium of the other plates was supplemented with 3 nM of paclitaxel (Sigma-Aldrich) and the cells were incubated at 37° C. After 4 hours the test substances were added in various concentrations (0 μM, as well as in the range of 0.001-10 μM; the final concentration of the solvent dimethyl sulfoxide was adjusted to 0.1%) using a Hewlett-Packard HP D300 Digital Dispenser. The cells were incubated for another 92 hours at 37° C. in the presence of test substances. Cell proliferation was determined by staining the cells with crystal violet: the cells were fixed by adding 20 μL/measuring point of an 11% glutaric aldehyde solution for 15 minutes at room temperature. After three washing cycles of the fixed cells with water, the plates were dried at room temperature. The cells were stained by adding 100 μL/measuring point of a 0.1% crystal violet solution (pH 3.0). After three washing cycles of the stained cells with water, the plates were dried at room temperature. The dye was dissolved by adding 100 μL/measuring point of a 10% acetic acid solution. […] The change of cell number, in percent, was calculated by normalization of the measured values to the absorbtion values of the zero-point plate (=0%) and the absorbtion of the untreated (0 μm) cells (=100%). The IC50 values were determined by means of a 4 parameter fit.
Setting [3] is: 10 μM ATP, read-out: Biological Assay 1: Bub1 kinase assay median IC50.
Where [4] appears, read: Biological Assay 1: Bub1 kinase assay median IC50, 10 μM ATP.

T1 sequence (O43683 704-1085): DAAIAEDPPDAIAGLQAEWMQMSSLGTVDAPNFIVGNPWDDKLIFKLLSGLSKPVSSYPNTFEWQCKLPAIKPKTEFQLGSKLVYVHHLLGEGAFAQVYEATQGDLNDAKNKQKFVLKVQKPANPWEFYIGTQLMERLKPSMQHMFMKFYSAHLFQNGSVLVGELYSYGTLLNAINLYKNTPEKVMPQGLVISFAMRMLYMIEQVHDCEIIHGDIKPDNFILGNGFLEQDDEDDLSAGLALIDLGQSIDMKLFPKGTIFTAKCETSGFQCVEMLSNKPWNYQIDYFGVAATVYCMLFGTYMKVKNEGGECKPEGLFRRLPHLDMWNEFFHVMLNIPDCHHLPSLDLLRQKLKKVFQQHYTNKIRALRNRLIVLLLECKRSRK

`Cc1cc(Nc2nc(-c3nn(Cc4c(F)cc(OCCO)cc4F)c4ccccc34)nc3c2CCC3)ccn1` [Example 2-4-12, 2-{3,5-difluoro-4-[(3-{4-[(2-methylpyridin-4-yl)amino]-6,7-dihydro-5H-cyclopenta[d]pyrimidin-2-yl}-1H-indazol-1-yl)methyl]phenoxy}ethanol]: the IC50 with HeLa is 1100 nM; at Bub1 it was 2300 nM; in test [1] (setting [3]) it was 48 nM; in test [2], 3300 nM.
`CCOc1cc(F)c(Cn2nc(-c3nc4c(c(Nc5ncncn5)n3)CCC4)c3ccccc32)c(F)c1` [Example 2-12-52, 2-[1-(4-ethoxy-2,6-difluorobenzyl)-1H-indazol-3-yl]-N-(1,3,5-triazin-2-yl)-6,7-dihydro-5H-cyclopenta[d]pyrimidin-4-amine]: the IC50 in the test on HeLa is 1100 nM; on Bub1 it was 25 nM; in test [1] (setting [3]) it was 100 nM; in test [2], 990 nM.
The corresponding values for `CCOc1cc(F)c(Cn2nc(-c3ncc(CCN)c(Nc4ccnc(C(F)(F)F)c4)n3)c3ccccc32)c(F)c1` [Example 2-9-11, 5-(2-aminoethyl)-2-[1-(4-ethoxy-2,6-difluorobenzyl)-1H-indazol-3-yl]-N-[2-(trifluorometh-yl)pyridin-4-yl]pyrimidin-4-amine, salt with hydrochloric acid] are 1100 nM, 2.8 nM, 360 nM and 110 nM.
As to `Cc1cc(Nc2nc(-c3nn(Cc4c(F)cc(OCCO)cc4F)c4ccccc34)nc3c2CCC3)ncn1` [Example 2-4-11, 2-{3,5-difluoro-4-[(3-{4-[(6-methylpyrimidin-4-yl)amino]-6,7-dihydro-5H-cyclopenta[d]pyrimidin-2-yl}-1H-indazol-1-yl)methyl]phenoxy}ethanol], the IC50 was over 10000 nM in the test with HeLa, 1900 nM on Bub1, 88 nM in test [1] (setting [4]) and 120 nM in test [2].
On the same counts, the results for `COCc1cc(Nc2ccnc(C)c2)nc(-c2nn(Cc3c(F)cc(OCCO)cc3F)c3ccccc23)n1` [Example 2-12-51, 2-{3,5-difluoro-4-[(3-{4-(methoxymethyl)-6-[(2-methylpyridin-4-yl)amino]pyrimidin-2-yl}-1H-indazol-1-yl)methyl]phenoxy}eth-anol] are 410 nM, 570 nM, 45 nM and 340 nM.
For `CCOc1cc(F)c(Cn2nc(-c3nc(CN4CCOCC4)cc(Nc4ccnc(S(C)(=O)=O)c4)n3)c3ccccc32)c(F)c1` [Example 2-12-33, 2-[1-(4-ethoxy-2,6-difluorobenzyl)-1H-indazol-3-yl]-N-[2-(methylsulfonyl)pyridin-4-yl]-6-(morpholin-4-ylmethyl)pyrimidin-4-amine], the IC50 in the test on HeLa is 8300 nM; at Bub1 it was 370 nM; in test [1] (setting [3]), 520 nM; in test [2], 400 nM.
For the molecule `CCOc1cc(F)c(Cn2nc(-c3nc4c(c(Nc5ccncc5OC)n3)COC4)c3ccccc32)c(F)c1` [Example 2-19-17, 2-[1-(4-ethoxy-2,6-difluorobenzyl)-1H-indazol-3-yl]-N-(3-methoxypyridin-4-yl)-5,7-dihydrofuro[3,4-d]pyrimidin-4-amine], the IC50 came out at 1500 nM in the test with HeLa, 7100 nM at Bub1, 18 nM in test [1] (setting [3]) and 140 nM in test [2].
For `Cc1nccc(Nc2nc(-c3nn(Cc4c(F)cc(OCCO)cc4F)c4ccccc34)nc3c2CCC(C)(C)C3)n1` [Example 2-6-24, 2-{4-[(3-{7,7-dimethyl-4-[(2-methylpyrimidin-4-yl)amino]-5,6,7,8-tetrahydroquin-azolin-2-yl}-1H-indazol-1-yl)methyl]-3,5-difluorophenoxy} ethanol], the IC50 in the test on HeLa was over 10000 nM; at Bub1 it was 14 nM; in test [1] (setting [4]), 120 nM; in test [2] it was 150 nM.
With `CCOc1cc(F)c(Cn2nc(-c3ncc(CCNCC(F)(F)F)c(Nc4ccncc4)n3)c3ccccc32)c(F)c1` [Example 2-16-1, 2-[1-(4-ethoxy-2,6-difluorobenzyl)-1H-indazol-3-yl]-N-(pyridin-4-yl)-5-{2-[(2,2,2-trifluoroethyl)amino]ethyl}pyrimidin-4-amine], the IC50 was 3000 nM in the test on HeLa, 18 nM at Bub1, 18 nM in test [1] (setting [4]) and 200 nM in test [2].
For the molecule `CCOc1cc(F)c(Cn2nc(-c3nc4c(c(Nc5ccncc5)n3)CCC4)c3ccccc32)c(F)c1` [Example 2-12-2, 2-[1-(4-ethoxy-2,6-difluorobenzyl)-1H-indazol-3-yl]-N-(pyridin-4-yl)-6,7-dihydro-5H-cyclopenta[d]pyrimidin-4-amine], the IC50 with HeLa was 2100 nM; on Bub1, 180 nM; in test [1] (setting [3]), 12 nM; in test [2], 390 nM.
For `Cc1nccc(Nc2nc(-c3nn(Cc4c(F)cc(O)cc4F)c4ccccc34)nc3c2CCC3)n1` [Example 2-6-12, 3,5-difluoro-4-[(3-{4-[(2-methylpyrimidin-4-yl)amino]-6,7-dihydro-5H-cyclopenta[d]pyrimidin-2-yl}-1H-indazol-1-yl)methyl]phenol], the IC50 in the test on HeLa was over 10000 nM; at Bub1, 2300 nM; in test [1] (setting [4]), 44 nM; in test [2], 2100 nM.
With `CCOc1cc(F)c(Cn2nc(-c3nc(Nc4ccncc4OC)cc(C(F)(F)F)n3)c3ccccc32)c(F)c1` [Example 2-12-81, 2-[1-(4-ethoxy-2,6-difluorobenzyl)-1H-indazol-3-yl]-N-(3-methoxypyridin-4-yl)-6-(trifluoromethyl)pyr-imidin-4-amine], the IC50 came to 1600 nM in the test on HeLa, 13 nM on Bub1, 19 nM in test [1] (setting [3]) and 220 nM in test [2].
Turning to `CCOc1cc(F)c(Cn2nc(-c3nc(CS(C)(=O)=O)cc(Nc4ccncc4)n3)c3ccccc32)c(F)c1` [Example 2-3-4, 2-[1-(4-ethoxy-2,6-difluorobenzyl)-1H-indazol-3-yl]-6-[(methylsulfonyl)methyl]-N-(pyridin-4-yl)pyrimidin-4-amine], the IC50 came out at 2100 nM in the test on HeLa, 0.52 nM at Bub1, 5.9 nM in test [1] (setting [4]) and 1000 nM in test [2].
For `Cc1nccc(Nc2nc(-c3nn(Cc4c(F)cc(OCCO)cc4F)c4ccccc34)ncc2C2CCN(CC3CC3)CC2)n1` [Example 2-6-23, 2-{4-[(3-{5-[1-(cyclopropyl-methyl)piperidin-4-yl]-4-[(2-methylpyrimidin-4-yl)amino]pyrimidin-2-yl}-1H-indazol-1-yl)methyl]-3,5-difluorophenoxy} ethanol], the IC50 worked out at 3000 nM in the test with HeLa, 12 nM on Bub1, 82 nM in test [1] (setting [4]) and 64 nM in test [2].
Consider `CCOc1cc(F)c(Cn2nc(-c3ncc(CCCCN4CCOCC4)c(Nc4ccncc4)n3)c3ccccc32)c(F)c1` [Example 2-2-12, 2-[1-(4-ethoxy-2,6-difluorobenzyl)-1H-indazol-3-yl]-5-[4-(morpholin-4-yl)butyl]-N-(pyridin-4-yl)pyrimidin-4-amine], for which the IC50 with HeLa amounted to 2300 nM; on Bub1 it was 800 nM; in test [1] (setting [4]) it was 12 nM; in test [2], 170 nM.
For the molecule `CCOc1cc(F)c(Cn2nc(-c3nc4c(c(Nc5cnnc(Cl)c5)n3)CCC4)c3ccccc32)c(F)c1` [Example 2-12-53, N-(6-chloropyridazin-4-yl)-2-[1-(4-ethoxy-2,6-difluorobenzyl)-1H-indazol-3-yl]-6,7-dihydro-5H-cyclopenta[d]pyrimidin-4-amine], the IC50 with HeLa is over 10000 nM; on Bub1, 140 nM; in test [1] (setting [3]), 660 nM; in test [2], 510 nM.
For `CCOc1cc(F)c(Cn2nc(-c3nc4c(c(Nc5ccnc(NC(C)=O)c5)n3)CSC4)c3ccccc32)c(F)c1` [Example 2-19-3, N-[4-({2-[1-(4-ethoxy-2,6-difluorobenzyl)-1H-indazol-3-yl]-5,7-dihydrothieno[3,4-d]pyrimidin-4-yl}amino)pyridin-2-yl]acetamide], the IC50 in the test with HeLa was found to be 2100 nM; on Bub1, 340 nM; in test [1] (setting [4]) it was 8.9 nM; in test [2], 610 nM.
In the case of `CCOc1cc(F)c(Cn2nc(-c3nc4c(c(Nc5ccnc(C)c5)n3)CSC4)c3ccccc32)c(F)c1` [Example 2-19-4, 2-[1-(4-ethoxy-2,6-difluorobenzyl)-1H-indazol-3-yl]-N-(2-methylpyridin-4-yl)-5,7-dihydrothieno[3,4-d]pyrimidin-4-amine], the IC50 came to 1200 nM in the test with HeLa, 45 nM on Bub1, 68 nM in test [1] (setting [3]) and 130 nM in test [2].
As to `CCOc1cc(F)c(Cn2nc(-c3nc(CN4CCOCC4)cc(Nc4ccncn4)n3)c3ccccc32)c(F)c1` [Example 2-12-47, 2-[1-(4-ethoxy-2,6-difluorobenzyl)-1H-indazol-3-yl]-6-(morpholin-4-ylmethyl)-N-(pyrimidin-4-yl)pyrimidin-4-amine], the IC50 in the test with HeLa was 6100 nM; on Bub1, 2100 nM; in test [1] (setting [3]) it was 5.2 nM; in test [2], 68 nM.
